Data taken from patent US12559506B2, “Indazole based compounds and associated methods of use” (Arvinas Operations, Inc., priority 2021, dated 2026).
Where two headings read alike, the source gives them in different places.

Molecular target: T1, LRRK2 (endogenous, HiBit tagged) (Homo sapiens, UniProt Q5S007)
T1 construct: endogenous in cells; host or cells: HEK293 cells with HiBit knock-in at the endogenous LRRK2 locus, stably expressing firefly luciferase
Experiment: Endogenous LRRK2 degradation assay, endogenous gene C-terminally HiBit-tagged in HEK293 cells (Nano-Glo Dual Luciferase)
Format: cell-based
Method in brief: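 LRRK2-HiBit quantified via Nano-Glo Dual Luciferase in HEK293 knock-in cells co-expressing firefly luciferase, after 24 h exposure to compound (1 μM final top, 1:3, 11 points). Values normalised to DMSO median per plate and curve-fitted; Alamar Blue viability run alongside.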

[1] = endogenous HiBit-tagged LRRK2 in HEK293 cells, 24 hours treatment, read-out: **Endogenous WT Dmax (%)
[2] = endogenous HiBit-tagged LRRK2 in HEK293 cells, 24 hours treatment, read-out: *Endogenous WT DC50
[3] = endogenous HiBit-tagged LRRK2, HEK293 cells, 24 hours, read-out: **Endogenous WT Dmax (%)
[4] = endogenous HiBit-tagged LRRK2, HEK293 cells, 24 hours, read-out: *Endogenous WT DC50
[5] = endogenous HiBit-tagged LRRK2 in HEK293 cells, 24 hours treatment, read-out: Endogenous WT DC50
[6] = endogenous HiBit-tagged LRRK2 in HEK293 cells, 24 hours treatment, read-out: Endogenous WT Dmax

T1 sequence (Q5S007 whole entry): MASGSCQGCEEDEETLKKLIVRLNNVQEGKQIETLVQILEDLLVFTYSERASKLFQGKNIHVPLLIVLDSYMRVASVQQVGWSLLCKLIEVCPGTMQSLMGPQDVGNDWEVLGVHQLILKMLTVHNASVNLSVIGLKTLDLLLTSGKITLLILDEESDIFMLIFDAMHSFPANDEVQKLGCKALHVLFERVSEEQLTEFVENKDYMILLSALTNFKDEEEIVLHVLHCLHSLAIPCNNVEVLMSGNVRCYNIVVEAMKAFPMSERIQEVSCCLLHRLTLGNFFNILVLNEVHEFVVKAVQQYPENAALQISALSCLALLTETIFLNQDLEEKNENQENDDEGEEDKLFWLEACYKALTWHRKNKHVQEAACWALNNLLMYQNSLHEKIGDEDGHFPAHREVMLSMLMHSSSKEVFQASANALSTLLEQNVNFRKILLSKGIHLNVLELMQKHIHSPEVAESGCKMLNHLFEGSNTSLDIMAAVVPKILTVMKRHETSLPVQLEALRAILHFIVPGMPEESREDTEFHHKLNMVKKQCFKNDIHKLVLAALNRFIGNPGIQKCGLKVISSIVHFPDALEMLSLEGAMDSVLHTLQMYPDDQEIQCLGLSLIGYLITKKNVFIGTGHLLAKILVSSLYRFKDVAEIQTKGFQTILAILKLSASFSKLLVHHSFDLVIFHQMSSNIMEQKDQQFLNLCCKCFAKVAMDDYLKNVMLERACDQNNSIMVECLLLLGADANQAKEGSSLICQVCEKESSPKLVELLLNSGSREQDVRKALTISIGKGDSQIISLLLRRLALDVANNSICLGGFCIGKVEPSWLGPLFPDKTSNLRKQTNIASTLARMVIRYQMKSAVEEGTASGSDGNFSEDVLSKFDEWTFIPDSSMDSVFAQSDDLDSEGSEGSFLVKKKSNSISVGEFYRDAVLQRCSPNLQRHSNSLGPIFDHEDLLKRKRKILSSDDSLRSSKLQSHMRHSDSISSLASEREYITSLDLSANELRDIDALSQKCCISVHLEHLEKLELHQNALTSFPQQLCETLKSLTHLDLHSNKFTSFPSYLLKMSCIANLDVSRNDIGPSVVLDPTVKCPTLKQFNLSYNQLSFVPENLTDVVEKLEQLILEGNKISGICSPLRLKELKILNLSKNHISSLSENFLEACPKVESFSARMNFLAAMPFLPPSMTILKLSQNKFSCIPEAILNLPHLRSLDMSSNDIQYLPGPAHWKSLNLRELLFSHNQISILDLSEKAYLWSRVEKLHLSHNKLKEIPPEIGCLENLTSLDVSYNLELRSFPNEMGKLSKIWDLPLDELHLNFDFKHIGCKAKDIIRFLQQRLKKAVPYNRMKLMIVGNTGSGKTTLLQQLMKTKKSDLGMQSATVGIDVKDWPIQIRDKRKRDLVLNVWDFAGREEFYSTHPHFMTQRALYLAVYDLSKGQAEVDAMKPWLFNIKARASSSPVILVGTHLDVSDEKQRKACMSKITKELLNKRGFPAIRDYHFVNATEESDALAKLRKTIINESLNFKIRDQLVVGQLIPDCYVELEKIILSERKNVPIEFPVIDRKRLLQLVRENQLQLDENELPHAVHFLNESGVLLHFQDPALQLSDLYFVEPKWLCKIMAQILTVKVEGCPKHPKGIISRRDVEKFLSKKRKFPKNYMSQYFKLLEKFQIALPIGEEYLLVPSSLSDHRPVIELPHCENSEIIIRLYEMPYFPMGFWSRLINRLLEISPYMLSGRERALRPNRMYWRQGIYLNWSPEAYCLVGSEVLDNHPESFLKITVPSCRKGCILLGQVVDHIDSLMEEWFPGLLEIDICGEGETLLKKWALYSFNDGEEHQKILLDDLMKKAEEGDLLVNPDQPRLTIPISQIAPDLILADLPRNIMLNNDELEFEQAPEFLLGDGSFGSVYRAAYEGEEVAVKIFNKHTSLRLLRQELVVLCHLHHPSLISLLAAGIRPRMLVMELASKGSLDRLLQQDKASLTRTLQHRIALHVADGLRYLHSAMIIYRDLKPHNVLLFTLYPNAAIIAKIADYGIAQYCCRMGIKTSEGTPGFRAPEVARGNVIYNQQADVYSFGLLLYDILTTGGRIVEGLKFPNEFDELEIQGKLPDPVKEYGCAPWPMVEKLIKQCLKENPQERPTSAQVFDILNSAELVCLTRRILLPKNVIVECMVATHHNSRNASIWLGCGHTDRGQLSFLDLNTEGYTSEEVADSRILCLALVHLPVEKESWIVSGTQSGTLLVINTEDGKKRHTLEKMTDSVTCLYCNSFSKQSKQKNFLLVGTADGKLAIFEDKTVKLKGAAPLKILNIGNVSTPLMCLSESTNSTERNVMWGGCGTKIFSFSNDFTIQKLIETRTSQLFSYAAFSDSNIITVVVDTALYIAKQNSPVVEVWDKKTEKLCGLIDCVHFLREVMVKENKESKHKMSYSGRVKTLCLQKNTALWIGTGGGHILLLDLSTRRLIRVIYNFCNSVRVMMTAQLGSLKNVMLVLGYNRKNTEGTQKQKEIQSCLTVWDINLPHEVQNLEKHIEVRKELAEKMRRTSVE

SMILES | Dmax [1] [%] | DC50 [2] [nM] | further results
C[C@H]1CN(c2cc(-c3[nH]nc4ccc(OC5(C)CC5)cc34)ncn2)CCN1CCN1CCC(C(=O)N2CCN(c3ccc4c(c3)C(=O)N(C3CCC(=O)NC3=O)C4=O)CC2)CC1 (stereo partly drawn) [Compound 58, 2-(2,6-dioxopiperidin-3-yl)-5-[4-(1-{2-[(2S)-2-methyl-4-{6-[5-(1-methylcyclopropoxy)-2H-indazol-3-yl]pyrimidin-4-yl}piperazin-1-yl]ethyl}piperidine-4-carbonyl)piperazin-1-yl]-2,3-dihydro-1H-isoindole-1,3-dione] | – | – | Dmax (endogenous HiBit-tagged LRRK2 in HEK293 cells, 24 hours, read-out: **Endogenous WT Dmax (%)): 50 to 70%; DC50 (endogenous HiBit-tagged LRRK2 in HEK293 cells, 24 hours, read-out: *Endogenous WT DC50): < 10 nM
CC1(Oc2ccc3n[nH]c(-c4cc(N5CCN(C[C@H]6C[C@H](OC7CCN(c8ccc9c(c8F)CN(C8CCC(=O)NC8=O)C9=O)CC7)C6)CC5)ncn4)c3c2)CC1 (some centres unmarked) [Compound 300, 3-(4-fluoro-1-oxo-5-{4-[(1r,3r)-3-[(4-{6-[5-(1-methylcyclopropoxy)-2H-indazol-3-yl]pyrimidin-4-yl}piperazin-1-yl)methyl]cyclobutoxy]piperidin-1-yl}-2,3-dihydro-1H-isoindol-2-yl)piperidine-2,6-dione] | 50 to 70 | < 10 | –
CC1(Oc2ccc3n[nH]c(-c4cc(N5CC(OCC6(F)CCN(CC7CCN(c8ccc9c(c8F)CN(C8CCC(=O)NC8=O)C9=O)CC7)CC6)C5)ncn4)c3c2)CC1 (centres unmarked) [Compound 200, 3-[4-fluoro-5-[4-[[4-fluoro-4-[[1-[6-[5-(1-methylcyclopropoxy)-2H-indazol-3-yl]pyrimidin-4-yl]azetidin-3-yl]oxymethyl]-1-piperidyl]methyl]-1-piperidyl]-1-oxo-isoindolin-2-yl]piperidine-2,6-dione] | – | – | Dmax [3]: ≥ 70%; DC50 [4]: < 10 nM
CC1(Oc2cc3c(-c4cc(N5CCC(O[C@H]6C[C@@H](OC7CCN(c8ccc9c(c8F)CN(C8CCC(=O)NC8=O)C9=O)CC7)C6)CC5)ncn4)n[nH]c3cn2)CC1 (some centres unmarked) [Compound 233, 3-(4-fluoro-1-oxo-5-{4-[(1s,3s)-3-[(1-{6-[5-(1-methylcyclopropoxy)-1H-pyrazolo[3,4-c]pyridin-3-yl]pyrimidin-4-yl}piperidin-4-yl)oxy]cyclobutoxy]piperidin-1-yl}-2,3-dihydro-1H-isoindol-2-yl)piperidine-2,6-dione] | – | – | DC50 [5]: < 10 nM; Dmax [6]: 50 to 70%
COc1c(N2CCC(CN3CCN(CC4CCN(c5cc(-c6n[nH]c7cc(F)c(OC8(C)CC8)cc67)ncn5)CC4)CC3(C)C)CC2)ccc2c1CN(C1CCC(=O)NC1=O)C2=O (centres unmarked) [Compound 279, 3-{5-[4-({4-[(1-{6-[6-fluoro-5-(1-methylcyclopropoxy)-1H-indazol-3-yl]pyrimidin-4-yl}piperidin-4-yl)methyl]-2,2-dimethylpiperazin-1-yl}methyl)piperidin-1-yl]-4-methoxy-1-oxo-2,3-dihydro-1H-isoindol-2-yl}piperidine-2,6-dione] | ≥ 70 | < 10 | –
COc1c(N2CCC(O[C@H]3C[C@H](N4CC5(CCN(c6cc(-c7[nH]nc8ccc(OC9(C)CC9)cc78)ncn6)CC5)C4)C3)CC2)ccc2c1CN(C1CCC(=O)NC1=O)C2=O (some centres unmarked) [Compound 347, 3-(4-methoxy-1-oxo-5-{4-[(1r,3r)-3-(7-{6-[5-(1-methylcyclopropoxy)-2H-indazol-3-yl]pyrimidin-4-yl}-2,7-diazaspiro[3.5]nonan-2-yl)cyclobutoxy]piperidin-1-yl}-2,3-dihydro-1H-isoindol-2-yl)piperidine-2,6-dione] | 50 to 70 | < 10 | –
COc1c(N2CCC(CN3CCN(CC4CCN(c5cc(-c6n[nH]c7cnc(OC8(C)CC8)cc67)ncn5)CC4)CC3)CC2)ccc2c1CN(C1CCC(=O)NC1=O)C2=O (centres unmarked) [Compound 253, 3-{4-methoxy-5-[4-({4-[(1-{6-[5-(1-methylcyclopropoxy)-1H-pyrazolo[3,4-c]pyridin-3-yl]pyrimidin-4-yl}piperidin-4-yl)methyl]piperazin-1-yl}methyl)piperidin-1-yl]-1-oxo-2,3-dihydro-1H-isoindol-2-yl}piperidine-2,6-dione] | – | – | DC50 [5]: < 10 nM; Dmax [6]: 50 to 70%
CC1(Oc2ccc3n[nH]c(-c4cc(N5CCC6(CC5)CN([C@H]5C[C@H](OC7CCN(c8ccc9c(c8F)CN(C8CCC(=O)NC8=O)C9=O)CC7)C5)C6)ncn4)c3c2)CC1 (some centres unmarked) [Compound 326, 3-(4-fluoro-1-oxo-5-{4-[(1r,3r)-3-(7-{6-[5-(1-methylcyclopropoxy)-2H-indazol-3-yl]pyrimidin-4-yl}-2,7-diazaspiro[3.5]nonan-2-yl)cyclobutoxy]piperidin-1-yl}-2,3-dihydro-1H-isoindol-2-yl)piperidine-2,6-dione] | 50 to 70 | < 10 | –
COc1c(N2CCC(CN3CCN(CC4CCN(c5cc(-c6n[nH]c7ccc(OC8(C)CC8)cc67)ncn5)CC4)C(C)(C)C3)CC2)ccc2c1CN(C1CCC(=O)NC1=O)C2=O (centres unmarked) [Compound 251, 3-{5-[4-({3,3-dimethyl-4-[(1-{6-[5-(1-methylcyclopropoxy)-1H-indazol-3-yl]pyrimidin-4-yl}piperidin-4-yl)methyl]piperazin-1-yl}methyl)piperidin-1-yl]-4-methoxy-1-oxo-2,3-dihydro-1H-isoindol-2-yl}piperidine-2,6-dione] | – | – | DC50 [5]: < 10 nM; Dmax [6]: 50 to 70%
CC1(Oc2cc3c(-c4cc(N5CCN(C[C@H]6CC[C@H](CN7CCN(c8ccc9c(c8F)CN(C8CCC(=O)NC8=O)C9=O)CC7)CC6)CC5)ncn4)n[nH]c3cc2F)CC1 (some centres unmarked) [Compound 203, 3-[4-fluoro-1-oxo-5-(4-{[(1r,4r)-4-[(4-{6-[6-fluoro-5-(1-methylcyclopropoxy)-1H-indazol-3-yl]pyrimidin-4-yl}piperazin-1-yl)methyl]cyclohexyl]methyl}piperazin-1-yl)-2,3-dihydro-1H-isoindol-2-yl]piperidine-2,6-dione] | – | – | DC50 [5]: < 10 nM; Dmax [6]: ≥ 70%
COc1c(N2CCC(CN3CCN(CC4CCN(c5cc(-c6n[nH]c7cnc(OC8(C)CC8)cc67)ncn5)CC4)[C@H](C)C3)CC2)ccc2c1CN(C1CCC(=O)NC1=O)C2=O (stereo partly drawn) [Compound 257, 3-[4-methoxy-5-(4-{[(3R)-3-methyl-4-[(1-{6-[5-(1-methylcyclopropoxy)-1H-pyrazolo[3,4-c]pyridin-3-yl]pyrimidin-4-yl}piperidin-4-yl)methyl]piperazin-1-yl]methyl}piperidin-1-yl)-1-oxo-2,3-dihydro-1H-isoindol-2-yl]piperidine-2,6-dione] | 50 to 70 | < 10 | –
COc1cc2c(cc1N1CCC(CN3CCN(CC4CCN(c5cc(-c6n[nH]c7ccc(OC8(C)CC8)cc67)ncn5)CC4)CC3)CC1)CN(C1CCC(=O)NC1=O)C2=O (centres unmarked) [Compound 194, 3-[6-methoxy-5-[4-[[4-[[1-[6-[5-(1-methylcyclopropoxy)-1H-indazol-3-yl]pyrimidin-4-yl]-4-piperidyl]methyl]piperazin-1-yl]methyl]-1-piperidyl]-1-oxo-isoindolin-2-yl]piperidine-2,6-dione] | – | – | Dmax [3]: ≥ 70%; DC50 [4]: < 10 nM

Second part, led by results:

Dmax [1] [%] | DC50 [2] [nM] | SMILES | further results
≥ 70 | < 10 | CC1(Oc2ccc3n[nH]c(-c4cc(N5CC(OC6CCN(CC7CCN(c8ccc9c(c8F)CN(C8CCC(=O)NC8=O)C9=O)CC7)CC6)C5)ncn4)c3c2)CC1 (centres unmarked) [Compound 289, 3-{4-fluoro-5-[4-({4-[(1-{6-[5-(1-methylcyclopropoxy)-2H-indazol-3-yl]pyrimidin-4-yl}azetidin-3-yl)oxy]piperidin-1-yl}methyl)piperidin-1-yl]-1-oxo-2,3-dihydro-1H-isoindol-2-yl}piperidine-2,6-dione] | –
50 to 70 | < 10 | C[C@@H]1CN(CC2CCN(c3ccc4c(c3F)CN(C3CCC(=O)NC3=O)C4=O)CC2)C[C@H](C)N1CC1CCN(c2cc(-c3n[nH]c4ccc(OC5(C)CC5)cc34)ncn2)CC1 (stereo partly drawn) [Compound 284, 3-[5-(4-{[(3R,5S)-3,5-dimethyl-4-[(1-{6-[5-(1-methylcyclopropoxy)-1H-indazol-3-yl]pyrimidin-4-yl}piperidin-4-yl)methyl]piperazin-1-yl]methyl}piperidin-1-yl)-4-fluoro-1-oxo-2,3-dihydro-1H-isoindol-2-yl]piperidine-2,6-dione] | –
50 to 70 | < 10 | COc1c(N2CCC(CN3CC[C@@H](OC4CCN(c5cc(-c6n[nH]c7ccc(OC8(C)CC8)cc67)ncn5)CC4)CC3(C)C)CC2)ccc2c1CN(C1CCC(=O)NC1=O)C2=O (stereo partly drawn) [Compound 319, 3-(5-(4-(((R)-2,2-dimethyl-4-((1-(6-(5-(1-methylcyclopropoxy)-1H-indazol-3-yl)pyrimidin-4-yl)piperidin-4-yl)oxy)piperidin-1-yl)methyl)piperidin-1-yl)-4-methoxy-1-oxoisoindolin-2-yl)piperidine-2,6-dione] | –
50 to 70 | < 10 | COc1c(N2CCC3(CC2)CN([C@H]2C[C@H](OC4CCN(c5cc(-c6[nH]nc7ccc(OC8(C)CC8)cc67)ncn5)CC4)C2)C3)ccc2c1CN(C1CCC(=O)NC1=O)C2=O (some centres unmarked) [Compound 315, 3-(4-methoxy-1-oxo-5-{2-[(1r,3r)-3-[(1-{6-[5-(1-methylcyclopropoxy)-2H-indazol-3-yl]pyrimidin-4-yl}piperidin-4-yl)oxy]cyclobutyl]-2,7-diazaspiro[3.5]nonan-7-yl}-2,3-dihydro-1H-isoindol-2-yl)piperidine-2,6-dione] | –
